From US12545639B2, “3-substituted phenylamidine compounds, preparation and use thereof” (PI INDUSTRIES LTD., priority 2019, dated 2026)

Key:
Botrytis cinerea = Botrytis cinerea (gray mold) in vitro test, radial growth on potato dextrose agar; assay type: cell-based; conditions: 168 h, 300 ppm in potato dextrose agar, 22° C., 90% relative humidity, seven days, read-out: control compared to the untreated check (radial growth)
Rhizoctonia solani = Rhizoctonia solani (rice sheath blight/potato black scurf) in vitro test, radial growth on potato dextrose agar; assay type: cell-based; conditions: 168 h, 300 ppm in potato dextrose agar, 25° C., 60% relative humidity, seven days, read-out: control compared to the untreated check (radial growth)
Fusarium culmorum = Fusarium culmorum (foot rot of cereals) in vitro test, radial growth on potato dextrose agar; assay type: cell-based; conditions: 168 h, 300 ppm in potato dextrose agar, 25° C., 60% relative humidity, seven days, read-out: control compared to the untreated check (radial growth)
Experimental: Compounds were dissolved in 0.3% dimethyl sulfoxide and then added to potato dextrose agar medium just prior to dispensing it into petri dishes. 5 mL medium with the compound in the desired concentration was dispensed into 60 mm sterile petri-plates. After solidification each plate was seeded with a 5 mm size mycelial disc taken from the periphery of an actively growing virulent culture plate. Plates were incubated in growth chambers at 25° C. temperature and 60% relative humidity for seven days and then the radial growth was measured and compared to that of the untreated control.

Alternaria solani = Alternaria solani (early blight of tomato/potato) in vitro test, radial growth on potato dextrose agar; assay type: cell-based; conditions: 168 h, 300 ppm in potato dextrose agar, 25° C., 60% relative humidity, seven days, read-out: control compared to the untreated check (radial growth)
Pyricularia oryzae = experiment: microbe, parasite or virus in culture; assay type: cell-based; conditions: 168 h, read-out: control compared to the untreated check (radial growth)
Colletotrichum capsici = Colletotrichum capsici (anthracnose) in vitro test, radial growth on potato dextrose agar; assay type: cell-based; conditions: Colletotrichum truncatum, 168 h; 300 ppm in potato dextrose agar; 25° C., 60% relative humidity, seven days; read-out: control compared to the untreated check (radial growth)
Phakopsora pachyrhizi = Phakopsora pachyrhizi test in soybean, preventive, in vivo on plants; conditions: in Glycine max, read-out: Efficacy (% control), disease severity compared to the untreated check
[1] = system: Septoria lycopersici/Corynespora cassicola (CORYCA); experiment: Septoria lycopersici/Corynespora cassicola (CORYCA) (leaf spot of tomato) in vitro test, radial growth on potato dextrose agar; assay type: cell-based; conditions: 168 h, 300 ppm in potato dextrose agar, 25° C., 70% relative humidity, seven days, read-out: control compared to the untreated check (radial growth)

CCN(C)C=Nc1cc(Cl)cc(Cc2ccc(C#N)cc2)c1C [Compound 246, N′-(5-chloro-3-(4-cyanobenzyl)-2-methylphenyl)-N-ethyl-N-methylformimidamide]
≥ 70%: inhibition of growth at 300 ppm (Botrytis cinerea) | inhibition of growth at 300 ppm (Rhizoctonia solani) | inhibition of growth at 300 ppm (Fusarium culmorum) | inhibition of growth at 300 ppm (Alternaria solani) | inhibition of growth at 300 ppm (Pyricularia oryzae) | inhibition of growth at 300 ppm (Colletotrichum capsici)

CCN(C)C=Nc1cc(C)cc(Cc2cccc(F)c2)c1SC [Compound 190, N-ethyl-N′-(3-(3-fluorobenzyl)-5-methyl-2-(methylthio)phenyl)-N-methylformimidamide]
≥ 70%: pest or weed control at 500 ppm (Phakopsora pachyrhizi) | inhibition of growth at 300 ppm (Rhizoctonia solani) | inhibition of growth at 300 ppm (Fusarium culmorum) | inhibition of growth at 300 ppm (Alternaria solani) | inhibition of growth at 300 ppm (Pyricularia oryzae) | inhibition of growth at 300 ppm (Colletotrichum capsici)

CCN(C)C=Nc1cc(C)cc(Nc2ncc(Cl)cc2C)c1Cl [Compound 112, N′-(2-chloro-3-((5-chloro-3-methylpyridin-2-yl)amino)-5-methylphenyl)-N-ethyl-N-methylformimidamide]
≥ 70%: inhibition of growth at 300 ppm (Fusarium culmorum) | inhibition of growth at 300 ppm [1] | inhibition of growth at 300 ppm (Alternaria solani) | inhibition of growth at 300 ppm (Pyricularia oryzae) | inhibition of growth at 300 ppm (Colletotrichum capsici)

CCN(C)C=Nc1cc(Cl)cc(Cc2ccc(C)cc2)c1C [Compound 105, N′-(5-chloro-2-methyl-3-(4-methylbenzyl)phenyl)-N-ethyl-N-methylformimidamide]
≥ 70%: inhibition of growth at 300 ppm (Botrytis cinerea) | pest or weed control at 500 ppm (Phakopsora pachyrhizi) | inhibition of growth at 300 ppm (Rhizoctonia solani) | inhibition of growth at 300 ppm (Fusarium culmorum) | inhibition of growth at 300 ppm (Alternaria solani) | inhibition of growth at 300 ppm (Pyricularia oryzae) | inhibition of growth at 300 ppm (Colletotrichum capsici)

CCN(C)C=Nc1cc(C)cc(Nc2ccc(C)cc2)c1Cl [Compound 1, N′-(2-chloro-5-methyl-3-(p-tolylamino)phenyl)-N-ethyl-N-methylformimidamide]
≥ 70%: inhibition of growth at 300 ppm (Rhizoctonia solani) | inhibition of growth at 300 ppm (Fusarium culmorum) | inhibition of growth at 300 ppm (Alternaria solani) | inhibition of growth at 300 ppm (Pyricularia oryzae) | inhibition of growth at 300 ppm (Colletotrichum capsici)

CCN(C)C=Nc1cc(OC)cc(Cc2cccc(Cl)c2)c1C [Compound 264, N′-(3-(3-chlorobenzyl)-5-methoxy-2-methylphenyl)-N-ethyl-N-methylformimidamide]
≥ 70%: inhibition of growth at 300 ppm (Botrytis cinerea) | pest or weed control at 500 ppm (Phakopsora pachyrhizi) | inhibition of growth at 300 ppm (Rhizoctonia solani) | inhibition of growth at 300 ppm (Fusarium culmorum) | inhibition of growth at 300 ppm [1] | inhibition of growth at 300 ppm (Alternaria solani) | inhibition of growth at 300 ppm (Pyricularia oryzae)

CCN(C)C=Nc1cc(OC)cc(Cc2ccccc2C)c1C [Compound 262, N-ethyl-N′-(5-methoxy-2-methyl-3-(2-methylbenzyl)phenyl)-N-methylformimidamide]
≥ 70%: inhibition of growth at 300 ppm (Botrytis cinerea) | pest or weed control at 500 ppm (Phakopsora pachyrhizi) | inhibition of growth at 300 ppm (Rhizoctonia solani) | inhibition of growth at 300 ppm (Fusarium culmorum) | inhibition of growth at 300 ppm [1] | inhibition of growth at 300 ppm (Alternaria solani) | inhibition of growth at 300 ppm (Pyricularia oryzae)

CCN(C)C=Nc1cc(Cl)cc(Cc2ccccc2C)c1C [Compound 88, N′-(5-chloro-2-methyl-3-(2-methylbenzyl)phenyl)-N-ethyl-N-methylformimidamide]
≥ 70%: inhibition of growth at 300 ppm (Botrytis cinerea) | pest or weed control at 500 ppm (Phakopsora pachyrhizi) | inhibition of growth at 300 ppm (Rhizoctonia solani) | inhibition of growth at 300 ppm (Fusarium culmorum) | inhibition of growth at 300 ppm (Alternaria solani) | inhibition of growth at 300 ppm (Pyricularia oryzae) | inhibition of growth at 300 ppm (Colletotrichum capsici)

CCN(C)C=Nc1cc(C)cc(Nc2ccc(SC(F)(F)F)cc2)c1Cl [Compound 26, N′-(2-chloro-5-methyl-3-((4-((trifluoromethyl)thio)phenyl)amino)phenyl)-N-ethyl-N-methylformimidamide]
≥ 70%: inhibition of growth at 300 ppm (Botrytis cinerea) | pest or weed control at 500 ppm (Phakopsora pachyrhizi) | inhibition of growth at 300 ppm (Rhizoctonia solani) | inhibition of growth at 300 ppm (Fusarium culmorum) | inhibition of growth at 300 ppm (Alternaria solani) | inhibition of growth at 300 ppm (Colletotrichum capsici)

CCN(C)C=Nc1cc(C)cc(Cc2ccc(C#N)cc2)c1Cl [Compound 46, N′-(2-chloro-3-(4-cyanobenzyl)-5-methylphenyl)-N-ethyl-N-methylformimidamide]
≥ 70%: inhibition of growth at 300 ppm (Botrytis cinerea) | inhibition of growth at 300 ppm (Rhizoctonia solani) | inhibition of growth at 300 ppm (Fusarium culmorum) | inhibition of growth at 300 ppm (Alternaria solani) | inhibition of growth at 300 ppm (Pyricularia oryzae) | inhibition of growth at 300 ppm (Colletotrichum capsici)

CCN(C)C=Nc1cc(OC)cc(Cc2ccc(F)c(F)c2)c1C [Compound 286, N′-(3-(3,4-difluorobenzyl)-5-methoxy-2-methylphenyl)-N-ethyl-N-methylformimidamide]
≥ 70%: inhibition of growth at 300 ppm (Botrytis cinerea) | pest or weed control at 500 ppm (Phakopsora pachyrhizi) | inhibition of growth at 300 ppm (Rhizoctonia solani) | inhibition of growth at 300 ppm (Fusarium culmorum) | inhibition of growth at 300 ppm [1] | inhibition of growth at 300 ppm (Alternaria solani) | inhibition of growth at 300 ppm (Pyricularia oryzae)

CCN(C)C=Nc1cc(OC)cc(Cc2ccc(C(F)(F)F)cc2)c1C [Compound 295, N-ethyl-N′-(5-methoxy-2-methyl-3-(4-(trifluoromethyl)benzyl)phenyl)-N-methylformimidamide]
≥ 70%: inhibition of growth at 300 ppm (Botrytis cinerea) | pest or weed control at 500 ppm (Phakopsora pachyrhizi) | inhibition of growth at 300 ppm (Rhizoctonia solani) | inhibition of growth at 300 ppm (Fusarium culmorum) | inhibition of growth at 300 ppm [1] | inhibition of growth at 300 ppm (Alternaria solani) | inhibition of growth at 300 ppm (Pyricularia oryzae)

CCN(C)C=Nc1cc(OC)cc(Cc2ccc(F)cc2)c1C [Compound 261, N-ethyl-N′-(3-(4-fluorobenzyl)-5-methoxy-2-methylphenyl)-N-methylformimidamide]
≥ 70%: inhibition of growth at 300 ppm (Botrytis cinerea) | pest or weed control at 500 ppm (Phakopsora pachyrhizi) | inhibition of growth at 300 ppm (Rhizoctonia solani) | inhibition of growth at 300 ppm (Fusarium culmorum) | inhibition of growth at 300 ppm [1] | inhibition of growth at 300 ppm (Alternaria solani) | inhibition of growth at 300 ppm (Pyricularia oryzae)

CCN(C)C=Nc1cc(OC)cc(Cc2ccccc2Br)c1C [Compound 294, N′-(3-(2-bromobenzyl)-5-methoxy-2-methylphenyl)-N-ethyl-N-methylformimidamide]
≥ 70%: inhibition of growth at 300 ppm (Botrytis cinerea) | pest or weed control at 500 ppm (Phakopsora pachyrhizi) | inhibition of growth at 300 ppm (Rhizoctonia solani) | inhibition of growth at 300 ppm (Fusarium culmorum) | inhibition of growth at 300 ppm [1] | inhibition of growth at 300 ppm (Alternaria solani) | inhibition of growth at 300 ppm (Pyricularia oryzae)
